Reference: patent publication US5145844A, “Methods of using hydroxy-, alkoxy- and benzyloxy-substituted phospholipids to treat phospholipase A2 -mediated conditions and to alleviate pain” (Hoechst-Roussel Pharmaceuticals Incorporated, priority 1991, dated 1992)
Structures can show the parent of a compound that is named as a salt.

The compounds below were run on phenyl-para-quinone induced writhing (assay: phenyl-para-quinone writhing assay in mice (Analgesic PQW)). Details: 20 mg/kg, s.c.
Format: in vivo
Description: The compounds of the present invention are also useful as analgesic agents due to their ability to alleviate pain in mammals. […] Exptl. Biol. Med., 95, 729 (1957)]. Presented in Table 2 is the analgesic effect of some of the compounds of the invention expressed as either the subcutaneous dose at which 50% of the phenyl-para-quinone induced writhing is inhibited in the animals, i.e., the ED50 value, or at the % decrease in writhing at a give dose.

Row | Structure (SMILES) | Analgesic PQW % Inhibition of Writhing [%]
1 | CCCCCCCCCCCCCCCC(O)CCCOP(=O)([O-])OCC[N+]1(C)CCCC1 (stereo not shown) [4,9-Dihydroxy-N-methyl-3,5-dioxa-4-phosphatetetracosan-1-pyrrolidinium, 4-oxide, hydroxide, inner salt 3.5 hydrate] | 62
2 | C[N+](C)(C)CCOP(=O)([O-])OCCCC(O)CCCCCCCCCOc1ccccc1 (stereo not shown) [4,9-Dihydroxy-N,N,N-trimethyl-3,5-dioxa-18-phenoxy-4-phosphaoctadecan-1-aminium, 4-oxide, hydroxide, inner salt dihydrate] | 48
3 | CCCCCCCCCC(CCCOP(=O)([O-])OCC[N+](C)(C)C)OCc1ccccc1 (stereo not shown) [4-Hydroxy-N,N,N-trimethyl-9-phenylmethoxy-3,5-dioxa-4-phosphaoctadecan-1-aminium, 4-oxide, hydroxide, inner salt monohydrate] | 83
4 | CCCCCCCCCCCCCCCC(CCCOP(=O)([O-])OCC[N+](C)(C)C)OCc1ccccc1 (stereo not shown) [4-Hydroxy-N,N,N-trimethyl-9-phenylmethoxy.3,5-dioxa-4-phosphatetracosan-1-aminium, 4-oxide, hydroxide, inner salt monohydrate] | 36
